Common to all, as to type: biochemical
One experiment concerns the target T1, KRAS G12D (Homo sapiens, UniProt P01116, G12D).
T1 construct: made in house; host or cells: E. coli, e.g. BL21 (DE3)
Nature of the experiment: HTRF KRAS-SOS1 interaction assay, KRAS G12D. To be noted: binned ≤2 μM / >2 μM, read-out: Inhibition of KRAS G12D (IC50). An excerpt:
(§1) This assay can be also used to assess a selective inhibition or reduction of signaling output of a mutant Ras protein relative to a wildtype, or relative to a different mutant Ras protein. For example, the equilibrium interaction of wildtype KRAS or K-Ras mutant (e.g., wildtype or a mutant thereof) with SOS1 (e.g., hSOS1) can be assessed as a proxy or an indication for the ability of a subject compound to bind and inhibit Ras protein. The HTRF assay detects from (i) a fluorescence resonance energy transfer (FRET) donor (e.g., antiGST-Europium) that is bound to GST-tagged K-Ras mutant to (ii) a FRET acceptor (e.g., anti-6His-XL665) bound to a His-tagged hSOS1.
(§2) The assay buffer can contain ˜5 mM HEPES pH 7.4, ˜150 mM NaCl, ˜1 mM DTT, 0.05% BSA and 0.0025% (v/v) Igepal. A Ras working solution is prepared in an assay buffer containing typically a suitable amount of the protein construct (e.g., GST-tagged K-Ras mutant) and the FRET donor (e.g., antiGST-Eu (K) from Cisbio, France). A SOS1 working solution is prepared in an assay buffer containing suitable amount of the protein construct (e.g., His-hSOS1) and the FRET acceptor (e.g., anti-6His-XL665 from Cisbio, France). A suitable amount of the protein construct will depend on the range of activity or range of IC50 values being detected or under investigation. For detecting an IC50 within a range of 500 nM, the protein constructs of the same range of molarity can be utilized.
(§3) A fixed volume of DMSO with or without test compound is transferred into a 384-well plate. Ras working solution is added to all wells of the test plate. SOS1 working solution is added to all wells except for those that are subsequently filled with inhibitor control solution. Upon incubation for about 10 minutes or longer, the fluorescence is measured with a M1000Pro plate reader (Tecan) using HTRF detection (excitation 337 nm, emission 1:620 nm, emission 2:665 nm). Compounds are tested in duplicate at different concentrations (for example, 10 μM, 2.5 μM, 0.63 μM, 0.16 μM, 0.04 μM, 0.01 μM test compound). The ratiometric data (i.e., emission 2 divided by emission 1) is used to calculate IC50 values against Ras using GraphPad Prism (GraphPad software). Signaling output measured in terms of IC50 values can be obtained and a ratio of IC50 against one mutant relative to another mutant can be calculated.

The target of a further experiment is T2, KRAS WT (Homo sapiens, UniProt P01116).
T2 construct: made in house; host or cells: E. coli, e.g. BL21 (DE3)
T2 sequence (P01116 1-188 isoform P01116-2): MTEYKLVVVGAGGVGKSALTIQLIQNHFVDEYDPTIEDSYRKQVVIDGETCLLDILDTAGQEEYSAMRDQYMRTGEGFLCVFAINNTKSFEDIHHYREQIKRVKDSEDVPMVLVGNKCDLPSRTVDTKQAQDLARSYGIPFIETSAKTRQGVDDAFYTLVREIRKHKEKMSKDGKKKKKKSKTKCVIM
Kind of experiment: HTRF KRAS-SOS1 interaction assay, wildtype KRAS. To be noted: binned ≤2 μM / >2 μM, read-out: Inhibition of KRAS WT (IC50).
From the text: as §1, §2, §3

A further experiment has as its target T3, KRAS G12V (Homo sapiens, UniProt P01116, G12V).
T3 construct: made in house; host or cells: E. coli, e.g. BL21 (DE3)
Kind of experiment: HTRF KRAS-SOS1 interaction assay, KRAS G12V. To be noted: binned ≤2 μM / >2 μM, read-out: Inhibition of KRAS G12V (IC50).
From the text: as §1, §2, §3

T1 sequence (P01116 1-188 isoform P01116-2 G12D): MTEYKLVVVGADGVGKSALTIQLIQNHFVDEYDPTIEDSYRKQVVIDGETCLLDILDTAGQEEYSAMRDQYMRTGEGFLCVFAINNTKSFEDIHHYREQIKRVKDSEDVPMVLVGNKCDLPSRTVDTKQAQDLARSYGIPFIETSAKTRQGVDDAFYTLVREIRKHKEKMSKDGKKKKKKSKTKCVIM
T3 sequence (P01116 1-188 isoform P01116-2 G12V): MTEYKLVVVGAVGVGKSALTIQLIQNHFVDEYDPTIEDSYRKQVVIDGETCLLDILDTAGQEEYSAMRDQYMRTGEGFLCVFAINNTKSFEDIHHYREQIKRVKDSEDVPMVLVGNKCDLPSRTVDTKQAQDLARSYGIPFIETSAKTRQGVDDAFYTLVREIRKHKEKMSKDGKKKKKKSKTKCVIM

Take `N#Cc1c(N)sc2c(F)ccc(-c3c(C(F)(F)F)c4c5c(nc(OC[C@@]67CCCN6C[C@H](F)C7)nc5c3F)N([C@H](CC3CCOC3)c3cccnc3N)CCO4)c12` (single isomer, unassigned) [Compound 717]: the IC50 on KRAS G12D, at KRAS WT and at KRAS G12V was more than 2000 nM each time.
For `N#Cc1c(N)sc2c(F)ccc(-c3c(C(F)(F)F)c4c5c(nc(OC[C@@]67CCCN6[C@H](COc6cnc(C(F)(F)F)cn6)CC7)nc5c3F)N([C@@H](c3cccnc3N)C(F)F)CCO4)c12` (single isomer, unassigned) [Compound 887], the IC50 at KRAS WT is not above 2000 nM.
For `C=CC[C@H](c1cccnc1N)N1CCOc2c(C(F)(F)F)c(-c3ccc(F)c4sc(N)c(C#N)c34)c(F)c3nc(OC[C@@]45CCCN4C[C@H](F)C5)nc1c23` (single isomer, unassigned) [Compound 734], the IC50 at KRAS G12D is not above 2000 nM; on KRAS WT, more than 2000 nM; at KRAS G12V, more than 2000 nM.
Turning to `CCO/N=C(\C)CCC[C@H](c1cccnc1N)N1CCOc2c(C(F)(F)F)c(-c3ccc(F)c4sc(N)c(C#N)c34)c(F)c3nc(OC[C@@]45CCCN4C[C@H](F)C5)nc1c23` (single isomer, unassigned) [Compound 859], the IC50 at KRAS G12D, at KRAS WT and on KRAS G12V was more than 2000 nM each time.
As to `N#Cc1c(N)sc2c(F)ccc(-c3c(C(F)(F)F)c4c5c(nc(OC[C@@]67CCCN6C[C@H](F)C7)nc5c3F)N([C@H](CCC3CCC3)c3cccnc3N)CCO4)c12` (single isomer, unassigned) [Compound 745], the IC50 at KRAS G12D and at KRAS WT was not above 2000 nM throughout.
`CN(C)CC[C@H](c1cccnc1N)N1CCOc2c(C(F)(F)F)c(-c3ccc(F)c4sc(N)c(C#N)c34)c(F)c3nc(OC[C@@]45CCCN4C[C@H](F)C5)nc1c23` (single isomer, unassigned) [Compound 758]: the 50% inhibitory concentration (IC50) at KRAS G12D is not above 2000 nM.
For the molecule `C[C@H]1CN([C@@H](c2cccnc2N)C(F)F)c2nc(OC[C@@]34CCCN3C[C@H](F)C4)nc3c(F)c(-c4ccc(F)c5sc(N)c(C#N)c45)c(C(F)(F)F)c(c23)O1` (single isomer, unassigned) [Compound 889], the IC50 at KRAS G12D is not above 2000 nM.
On the same count and under the same terms, to `CC(c1cccnc1N)N1CCOc2c(Cl)c(-c3ccc(F)c4sc(N)c(C#N)c34)c(F)c3nc(OC[C@@]45CCCN4C[C@H](F)C5)nc1c23` (single isomer, unassigned) [Compound 820] belongs not above 2000 nM; to `N#Cc1c(N)sc2c(F)ccc(-c3c(C(F)(F)F)c4c5c(nc(OC[C@@]67CCCN6C[C@H](F)C7)nc5c3F)N([C@H](CCC3COCCO3)c3cccnc3N)CCO4)c12` (single isomer, unassigned) [Compound 701], not above 2000 nM.
Regarding `N#Cc1c(N)sc2c(F)ccc(-c3c(Cl)c4c5c(nc(OC[C@@]67CCCN6C[C@H](F)C7)nc5c3F)N(C(c3cccnc3N)C(F)F)CCO4)c12` (single isomer, unassigned) [Compound 786], the IC50 at KRAS G12D was not above 2000 nM.
On the same count and under the same terms, to `N#Cc1c(N)sc2c(F)ccc(-c3c(C(F)(F)F)c4c5c(nc(OC[C@@]67CCCN6C[C@H](F)C7)nc5c3F)N([C@H](CCC3CCOCC3)c3cccnc3N)CCO4)c12` (single isomer, unassigned) [Compound 696] belongs not above 2000 nM; to `C[C@H](c1cccnc1N)N1CCOc2c(Cl)c(-c3ccc(F)c4sc(N)c(C#N)c34)c(F)c3nc(OCC4(CN(C)C)CC4)nc1c23` (single isomer, unassigned) [Compound 771], not above 2000 nM.
Same read-out and setting: as for `C[C@H](c1cccnc1N)N1CCOc2c(C(F)(F)F)c(-c3ccc(F)c4sc(N)c(C#N)c34)c(F)c3nc(OC[C@@]45CCCN4CC(C#N)C5)nc1c23` (single isomer, unassigned) [Compound 754], the figure is not above 2000 nM.
Same read-out and setting: to `CS(=O)(=O)CCC[C@H](c1cccnc1N)N1CCOc2c(C(F)(F)F)c(-c3ccc(F)c4sc(N)c(C#N)c34)c(F)c3nc(OC[C@@]45CCCN4C[C@H](F)C5)nc1c23` (single isomer, unassigned) [Compound 805] belongs not above 2000 nM.

(Values after US12668600B2 (Kumquat Biosciences Inc., priority 2023, dated 2026).)
